The test system of data set [1] is Mycobacterium smegmatis ATCC 607. The experiment in a line: Antimicrobial activity, agar plate-cylinder method. The class given is cell-based. The following applies: Cu-free form; bleomycin A2 (Cu-free form) standard assumed 1,000 mcg/mg. The protocol: (§1) The activity was assayed against the above test microorganisms by the method of agar plate-cylinder, assuming the potency of bleomycin A2 (Cu-free form), used as standard, to be 1,000 mcg/mg.

The next data set deals with Bacillus subtilis. Description: Antimicrobial activity, agar plate-cylinder method. In kind it is cell-based. The following applies: Cu-free form; bleomycin A2 (Cu-free form) standard assumed 1,000 mcg/mg. The protocol:
(1) Antimicrobial activity against Mycobacterium smegmatis ATCC 697 and Bacillus subtilis.
as §1

The next data set relates to Hela S3 cells. The experiment in a line: Growth inhibitory activity against Hela S3 cells. The class given is cell-based. The settings on record: Cu-free form; Hela S3, 3 days incubation with compound. As for the experimental part:
The percentage growth inhibition was calculated using the equation: […] wherein A is the ultimate number of cells on the third day from the addition of a test sample, B is the ultimate number of cells in the control (without the addition of test sample), and C is the number of cells on the day of addition of the test sample.

For a further data set, the system named is ICR strain mice. The experiment in a line: Pulmonary toxicity (pulmonary fibrosis) in mice, intraperitoneal injection. The following applies: 5 mg/kg i.p. once a day for 10 days; for Grade of pulmonary fibrosis, % / Incidence of pulmonary fibrosis, % / Incidence: number of mice suffering from pulmonary fibrosis / Grade: total score of pulmonary fibrosis/total number of test animal: autopsy after 5 weeks; for Incidence: number of mice suffering from pulmonary fibrosis: affected/total mice; for Grade: total score of pulmonary fibrosis/total number of test animal: score 0-6 points; for Grade of pulmonary fibrosis, Ratio / Incidence of pulmonary fibrosis, Ratio: reference of the ratio not stated. The class given is in vivo. An outline of the steps:
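Male ICR mice, 15 weeks old, 9 per group, received 5 mg/kg intraperitoneally once daily for 10 days. They were autopsied after 5 weeks' observation for pulmonary fibrosis incidence and grade: 1, alveolar exudate/septal fibrosis-like change; 2, fibrosis in several areas; 4, scattered fibrosis; 6, fibrosis over >2/3 of area.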

Data set [2] concerns Lymphocytic leukemia P-388. Description: In vivo antitumor activity, murine lymphocytic leukemia P-388. The following applies: BDF1-SLC mice, i.p. transplant, once daily for 9 days, 30 days observation; T/C more than 130 effective. The protocol:
The following data with respect to the testing of a group of the presently claimed substances in vivo according to a standard test method involving murine lymphocytic leukemia P-388 is presented to lend further assurance as to the utility of the compounds as inhibitors of mammalian tumors.
Lymphocytic leukemia P-388 cells (1×10^5 /0.2 ml) were transplanted intraperitoneally into male BDF1 -SLC mice (5 mice/group). Each of the compounds of this invention was diluted with physiological saline to various concentrations. Each dilution was administered at a dose of 0.1 ml/10 g of body weight once daily for 9 days, starting on the day after the day of the transplantation. The mice of the control group were administered physiological saline.
The average number of days that the group receiving the compound of this invention survived was calculated. The figure obtained was divided by the average number of survival days for the control group, and was multiplied by 100 (T/C (%)).
T/C value more than 130 was considered to be effective.

SMILES strings stand for the structures.

For `Cc1c(N)nc(C(CC(N)=O)NCC(N)C(N)=O)nc1C(=O)NC(C(=O)NC(C)C(O)C(C)C(=O)NC(C(=O)NCCc1nc(-c2nc(C(=O)NCCCN3CCN(CCCNCC4CCCCCCC4)CC3)cs2)cs1)C(C)O)C(OC1OC(CO)C(O)C(O)C1OC1OC(CO)C(O)C(OC(N)=O)C1O)c1cnc[nH]1` (stereo not drawn) [compound 45, 3-[4-(3-Cyclooctylmethylaminopropyl)piperazin-l-yl]propylaminoBLM], the “Antimicrobial potency of Cu--free compound, against Mycobacterium smegmatis ATCC 607” value in data set [1] was determined as 43000 mcg potency per mg. Besides, the “Antimicrobial potency of Cu--free compound, against Bacillus subtilis” value with Bacillus subtilis was 15100 mcg potency per mg. Moreover, the “50% growth inhibition concentration (ID50) of Cu--free compound against cultured Hela cell” value with Hela S3 cells worked out at 0.81 µg/mL. For the same compound, in the data set with ICR strain mice, the “Grade of pulmonary fibrosis, %” value is listed as 0%; the “Incidence of pulmonary fibrosis, %” value amounted to 0%; the “Incidence: number of mice suffering from pulmonary fibrosis” value (“Incidence: number of mice suffering” for short) is recorded as 0/9; the “Grade: total score of pulmonary fibrosis/total number of test animal” value is listed as 0/27. For the same compound, in the data set with ICR strain mice, the “Grade of pulmonary fibrosis, Ratio” value is 0.00 and the “Incidence of pulmonary fibrosis, Ratio” value is listed as 0.00. Further, in data set [2], the “Max. T/C on Mouse Lymphocytic Leukemia P 388” value is 163%.

As to `CC[N+](CC)(CCCNCCc1ccc(Cl)cc1)CCCNC(=O)c1csc(-c2csc(CCNC(=O)C(NC(=O)C(C)C(O)C(C)NC(=O)C(NC(=O)c3nc(C(CC(N)=O)NCC(N)C(N)=O)nc(N)c3C)C(OC3OC(CO)C(O)C(O)C3OC3OC(CO)C(O)C(OC(N)=O)C3O)c3cnc[nH]3)C(C)O)n2)n1` (stereo not shown) [compound 46, 3-{N,N--Diethyl-N--[3'-(2"-p-chlorophenylethylamino)propyl]amino}propylaminoBLM], the “Antimicrobial potency of Cu--free compound, against Mycobacterium smegmatis ATCC 607” value in data set [1] is recorded as 17480 mcg potency per mg. For the same compound, the “Antimicrobial potency of Cu--free compound, against Bacillus subtilis” value in the data set on Bacillus subtilis came to 13310 mcg potency per mg. Also, in the data set with Hela S3 cells, the “50% growth inhibition concentration (ID50) of Cu--free compound against cultured Hela cell” value was 0.52 µg/mL. For the same compound, in the data set with ICR strain mice, the “Grade of pulmonary fibrosis, %” value stood at 0%; the “Incidence of pulmonary fibrosis, %” value is recorded as 0%; the “Incidence: number of mice suffering” value was 0/9; the “Grade: total score of pulmonary fibrosis/total number of test animal” value is 0/27. Besides, in the data set with ICR strain mice, the “Grade of pulmonary fibrosis, Ratio” value turned out to be 0.00 and the “Incidence of pulmonary fibrosis, Ratio” value is 0.00. In data set [2], the “Max. T/C on Mouse Lymphocytic Leukemia P 388” value is on record as 150%.

Regarding `Cc1c(N)nc(C(CC(N)=O)NCC(N)C(N)=O)nc1C(=O)NC(C(=O)NC(C)C(O)C(C)C(=O)NC(C(=O)NCCc1nc(-c2nc(C(=O)NCCC[N+](C)(C)CCC[N+](C)(C)CCCN(Cc3ccccc3)Cc3ccccc3)cs2)cs1)C(C)O)C(OC1OC(CO)C(O)C(O)C1OC1OC(CO)C(O)C(OC(N)=O)C1O)c1cnc[nH]1` (stereo not shown) [Compound No. 41, 3-{N,N--Dimethyl-N--[3'-(N,N--dimethyl-N--(3"-dibenzylaminopropyl)amino)propyl]amino}propylaminoBLM], the “Antimicrobial potency of Cu--free compound, against Mycobacterium smegmatis ATCC 607” value in data set [1] was 16000 mcg potency per mg. For the same compound, in the data set on Bacillus subtilis, the “Antimicrobial potency of Cu--free compound, against Bacillus subtilis” value worked out at 7100 mcg potency per mg. Moreover, the “50% growth inhibition concentration (ID50) of Cu--free compound against cultured Hela cell” value with Hela S3 cells came to 0.66 µg/mL. In the data set on ICR strain mice, the “Grade of pulmonary fibrosis, %” value was 0%; the “Incidence of pulmonary fibrosis, %” value is on record as 0%; the “Incidence: number of mice suffering” value is 0/9; the “Grade: total score of pulmonary fibrosis/total number of test animal” value was 0/27. For the same compound, in the data set on ICR strain mice, the “Grade of pulmonary fibrosis, Ratio” value is on record as 0.00 and the “Incidence of pulmonary fibrosis, Ratio” value is reported as 0.00. In addition, the “Max. T/C on Mouse Lymphocytic Leukemia P 388” value in data set [2] is 184%.

Consider `Cc1c(N)nc(C(CC(N)=O)NCC(N)C(N)=O)nc1C(=O)NC(C(=O)NC(C)C(O)C(C)C(=O)NC(C(=O)NCCc1nc(-c2nc(C(=O)NCCCN(C)CCCNCC3CCCCCCC3)cs2)cs1)C(C)O)C(OC1OC(CO)C(O)C(O)C1OC1OC(CO)C(O)C(OC(N)=O)C1O)c1cnc[nH]1.Cl.Cl.Cl` (stereo not shown) [Compound No. 22], for which the “Antimicrobial potency of Cu--free compound, against Mycobacterium smegmatis ATCC 607” value in data set [1] came to 22860 mcg potency per mg. In addition, the “Antimicrobial potency of Cu--free compound, against Bacillus subtilis” value with Bacillus subtilis was found to be 12300 mcg potency per mg. In the data set on Hela S3 cells, the “50% growth inhibition concentration (ID50) of Cu--free compound against cultured Hela cell” value was determined as 0.45 µg/mL. Moreover, in the data set on ICR strain mice, the “Grade of pulmonary fibrosis, %” value stood at 0%; the “Incidence of pulmonary fibrosis, %” value came out at 0%; the “Incidence: number of mice suffering” value is 0/9; the “Grade: total score of pulmonary fibrosis/total number of test animal” value is 0/27. Further, in the data set on ICR strain mice, the “Grade of pulmonary fibrosis, Ratio” value turned out to be 0.000 and the “Incidence of pulmonary fibrosis, Ratio” value worked out at 0.00. In addition, in data set [2], the “Max. T/C on Mouse Lymphocytic Leukemia P 388” value is reported as 174%.

Consider `Cc1c(N)nc(C(CC(N)=O)NCC(N)C(N)=O)nc1C(=O)NC(C(=O)NC(C)C(O)C(C)C(=O)NC(C(=O)NCCc1nc(-c2nc(C(=O)NCCCN(C)CCCNCc3c4ccccc4cc4ccccc34)cs2)cs1)C(C)O)C(OC1OC(CO)C(O)C(O)C1OC1OC(CO)C(O)C(OC(N)=O)C1O)c1cnc[nH]1` (stereo not shown) [compound 21, 3-{N--Methyl-N--[3'-(9-anthramethylamino)propyl]amino}propylaminoBLM], for which the “Antimicrobial potency of Cu--free compound, against Mycobacterium smegmatis ATCC 607” value in data set [1] turned out to be 13250 mcg potency per mg. Moreover, in the data set on Bacillus subtilis, the “Antimicrobial potency of Cu--free compound, against Bacillus subtilis” value stood at 4504 mcg potency per mg. The “50% growth inhibition concentration (ID50) of Cu--free compound against cultured Hela cell” value in the data set on Hela S3 cells was 0.80 µg/mL. Moreover, the “Max. T/C on Mouse Lymphocytic Leukemia P 388” value in data set [2] came to 148%.

For the compound `CCCC[N+](CCCC)(CCCNC(=O)c1csc(-c2csc(CCNC(=O)C(NC(=O)C(C)C(O)C(C)NC(=O)C(NC(=O)c3nc(C(CC(N)=O)NCC(N)C(N)=O)nc(N)c3C)C(OC3OC(CO)C(O)C(O)C3OC3OC(CO)C(O)C(OC(N)=O)C3O)c3cnc[nH]3)C(C)O)n2)n1)CCCN(Cc1ccccc1)Cc1ccccc1` (stereo not shown) [compound 38, 3-{N,N--Dibutyl-N--[3'-(dibenzylamino)propyl]amino}propylaminoBLM], the “Antimicrobial potency of Cu--free compound, against Mycobacterium smegmatis ATCC 607” value in data set [1] was 17910 mcg potency per mg. For the same compound, in the data set on Bacillus subtilis, the “Antimicrobial potency of Cu--free compound, against Bacillus subtilis” value came out at 530 mcg potency per mg. The “50% growth inhibition concentration (ID50) of Cu--free compound against cultured Hela cell” value in the data set with Hela S3 cells was 2.00 µg/mL. In the data set on ICR strain mice, the “Grade of pulmonary fibrosis, %” value is recorded as 0%; the “Incidence of pulmonary fibrosis, %” value came out at 0%; the “Incidence: number of mice suffering” value was 0/9; the “Grade: total score of pulmonary fibrosis/total number of test animal” value is 0/27. Also, in the data set on ICR strain mice, the “Grade of pulmonary fibrosis, Ratio” value amounted to 0.00 and the “Incidence of pulmonary fibrosis, Ratio” value is given as 0.00. In data set [2], the “Max. T/C on Mouse Lymphocytic Leukemia P 388” value worked out at 156%.

On to `Cc1c(N)nc(C(CC(N)=O)NCC(N)C(N)=O)nc1C(=O)NC(C(=O)NC(C)C(O)C(C)C(=O)NC(C(=O)NCCc1nc(-c2nc(C(=O)NCCC[N+](C)(C)CCC[N+](C)(C)CCCNCC3CCCCCCC3)cs2)cs1)C(C)O)C(OC1OC(CO)C(O)C(O)C1OC1OC(CO)C(O)C(OC(N)=O)C1O)c1cnc[nH]1` (stereo not shown) [Compound No. 42, 3-{N,N--Dimethyl-N--[3'-(N,N--dimethyl-N--(3"-cyclooctylmethylaminopropyl)amino)propyl]amino}propylaminoBLM], for which the “Antimicrobial potency of Cu--free compound, against Mycobacterium smegmatis ATCC 607” value in data set [1] came to 26000 mcg potency per mg. In the data set on Bacillus subtilis, the “Antimicrobial potency of Cu--free compound, against Bacillus subtilis” value was 14600 mcg potency per mg. In addition, the “50% growth inhibition concentration (ID50) of Cu--free compound against cultured Hela cell” value in the data set with Hela S3 cells turned out to be 0.51 µg/mL. For the same compound, in the data set with ICR strain mice, the “Grade of pulmonary fibrosis, %” value turned out to be 0%; the “Incidence of pulmonary fibrosis, %” value was found to be 0%; the “Incidence: number of mice suffering” value is listed as 0/9; the “Grade: total score of pulmonary fibrosis/total number of test animal” value is 0/27. Also, in the data set on ICR strain mice, the “Grade of pulmonary fibrosis, Ratio” value was 0.00 and the “Incidence of pulmonary fibrosis, Ratio” value was 0.00. For the same compound, in data set [2], the “Max. T/C on Mouse Lymphocytic Leukemia P 388” value was 177%.

Values taken from patent US4568490A, “Aminopropylaminobleomycin derivatives and process for preparation thereof” (Zaidan Hojin Biseibutsu Kagaku Kenkyu Kai, priority 1981, dated 1986).
